# From doi:10.1101/2025.03.23.644840v2 (biorxiv, 2025)
# Where two headings read alike, the source gives them in different places.
# Key:
# Assay in all cases: isothermal titration calorimetry
# [1] = target: Anc4; format: binding, synthetic construct; conditions: 25 °C; 20 mM HEPES, 150 mM NaCl, 2% glycerol, pH 8; 1:1 model
# [2] = target: ecLacI (Escherichia coli, UniProt P03023); format: binding
# [3] = target: ΔAnc1; design: species or system synthetic construct; conditions: 25 °C; 20 mM HEPES, 150 mM NaCl, 2% glycerol, pH 8; 1:1 model
# [4] = target: Anc1; format: binding, synthetic construct; conditions: 25 °C; 20 mM HEPES, 150 mM NaCl, 2% glycerol, pH 8; 1:1 model
# [5] = target: ΔAnc4; design: species or system synthetic construct; conditions: 25 °C; 20 mM HEPES, 150 mM NaCl, 2% glycerol, pH 8; 1:1 model
# [6] = target: Anc2; format: binding, synthetic construct; conditions: 25 °C; 20 mM HEPES, 150 mM NaCl, 2% glycerol, pH 8; 1:1 model
# [7] = target: Anc3; format: binding, synthetic construct; conditions: 25 °C; 20 mM HEPES, 150 mM NaCl, 2% glycerol, pH 8; 1:1 model
# Chain of ecLacI (P03023 whole entry): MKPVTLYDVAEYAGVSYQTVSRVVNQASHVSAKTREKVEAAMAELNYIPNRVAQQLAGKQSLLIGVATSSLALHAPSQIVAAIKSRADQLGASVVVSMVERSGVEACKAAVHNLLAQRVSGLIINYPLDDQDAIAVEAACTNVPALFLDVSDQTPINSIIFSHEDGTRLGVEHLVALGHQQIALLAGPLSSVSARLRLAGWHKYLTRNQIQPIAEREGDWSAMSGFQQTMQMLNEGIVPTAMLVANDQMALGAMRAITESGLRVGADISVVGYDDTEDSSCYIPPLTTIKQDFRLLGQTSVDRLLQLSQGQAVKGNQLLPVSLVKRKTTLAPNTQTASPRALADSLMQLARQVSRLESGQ
Kd [1],"Kd ([2]; 25 °C, 20 mM HEPES, 150 mM NaCl, 2% glycerol, pH 8, 1:1 model)",Kd [3],Kd [4],Kd [2],Kd [5],Kd [6],Kd [7],SMILES
15000 µM,37000 µM,420 µM,127 µM,–,–,–,–,C[C@H]1OC(O)[C@H](O)[C@@H](O)[C@H]1O (stereo partly drawn) [D-fucose]
550 µM,–,–,4000 µM,306 µM,430 µM,2200 µM,2500 µM,CO[C@@H]1O[C@H](CO)[C@H](O)[C@H](O)[C@H]1O [BMDG]
